In US20230117034A1, “PYRAZOLOTRIAZINES” (Bayer Aktiengesellschaft, priority 2019, published 2023):

Experiments:
[1] = tested on: MDA-MB-231, human breast cancer cells; experiment: Proliferation assay MDA-MB-231 (crystal violet, 4 days); assay type: cell-based; settings: Homo sapiens, MDA-MB-231, 96 h, MDA-MB-231 cells, median, read-out: Prolif-MDA MB-231, IC50-[mol/l] (median)
Outline: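 Growth was measured by crystal violet staining after cells had been treated with compounds (0.01-10 µmol/L, 0.1% DMSO) for 4 days, beginning 24 h after seeding. Values were normalized to a zero-point plate and to untreated controls, and IC50 values were derived by a four-parameter fit.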

[2] = biological target: T1, CDK12 protein level in CAL-120 breast cancer cells (Homo sapiens, UniProt Q9NYV4); experiment: CDK12 protein level: Protein Simple (CDK12, CAL-120); assay type: cell-based; settings: CAL-120 cells, 18 h with compound, CDK12/HSP90 peak area ratio vs vehicle, median, read-out: CDK12 protein level in CAL-120 breast ca cells, DC50-[mol/l] (median)
T1 construct: endogenous in cells; host or cells: CAL-120 human breast cancer cells (DSMZ ACC 459)
T1 sequence (Q9NYV4 whole entry): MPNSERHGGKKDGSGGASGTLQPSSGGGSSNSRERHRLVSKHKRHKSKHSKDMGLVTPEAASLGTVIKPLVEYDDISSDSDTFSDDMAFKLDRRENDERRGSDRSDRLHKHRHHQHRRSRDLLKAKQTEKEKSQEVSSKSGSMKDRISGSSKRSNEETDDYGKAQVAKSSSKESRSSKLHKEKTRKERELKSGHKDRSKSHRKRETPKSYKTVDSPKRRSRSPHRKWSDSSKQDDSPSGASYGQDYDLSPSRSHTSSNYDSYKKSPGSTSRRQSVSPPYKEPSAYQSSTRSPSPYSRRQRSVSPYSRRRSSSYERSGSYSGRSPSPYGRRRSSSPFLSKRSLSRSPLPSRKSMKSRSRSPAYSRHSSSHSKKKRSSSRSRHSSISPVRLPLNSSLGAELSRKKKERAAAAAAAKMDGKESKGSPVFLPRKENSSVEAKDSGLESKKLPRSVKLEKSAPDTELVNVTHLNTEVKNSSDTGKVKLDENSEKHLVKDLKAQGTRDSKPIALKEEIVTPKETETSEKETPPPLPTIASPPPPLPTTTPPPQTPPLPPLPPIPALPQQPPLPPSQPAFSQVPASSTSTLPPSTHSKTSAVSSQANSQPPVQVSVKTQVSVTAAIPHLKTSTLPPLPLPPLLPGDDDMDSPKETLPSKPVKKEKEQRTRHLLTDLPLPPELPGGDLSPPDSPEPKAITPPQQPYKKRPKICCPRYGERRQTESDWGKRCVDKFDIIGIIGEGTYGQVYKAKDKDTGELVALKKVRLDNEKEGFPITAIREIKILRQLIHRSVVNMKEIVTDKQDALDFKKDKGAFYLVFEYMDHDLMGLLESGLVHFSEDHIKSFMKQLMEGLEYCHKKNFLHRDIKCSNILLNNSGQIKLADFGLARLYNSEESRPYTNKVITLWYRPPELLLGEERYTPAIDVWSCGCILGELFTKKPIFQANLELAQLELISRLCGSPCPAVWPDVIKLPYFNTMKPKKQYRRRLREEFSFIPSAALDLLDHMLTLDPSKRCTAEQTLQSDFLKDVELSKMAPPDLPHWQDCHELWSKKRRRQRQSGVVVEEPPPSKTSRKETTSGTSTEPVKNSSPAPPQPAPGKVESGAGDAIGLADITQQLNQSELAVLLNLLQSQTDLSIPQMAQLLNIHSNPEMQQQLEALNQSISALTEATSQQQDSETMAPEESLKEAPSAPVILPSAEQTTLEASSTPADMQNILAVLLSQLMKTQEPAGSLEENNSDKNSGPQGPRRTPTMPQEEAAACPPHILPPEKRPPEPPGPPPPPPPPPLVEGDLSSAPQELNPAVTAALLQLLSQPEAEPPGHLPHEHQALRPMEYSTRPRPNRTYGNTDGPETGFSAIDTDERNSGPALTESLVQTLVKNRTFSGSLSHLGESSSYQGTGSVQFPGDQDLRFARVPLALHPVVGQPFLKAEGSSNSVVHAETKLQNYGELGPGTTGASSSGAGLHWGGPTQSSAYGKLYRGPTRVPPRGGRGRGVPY
T1 sequence (O75909 whole entry partner): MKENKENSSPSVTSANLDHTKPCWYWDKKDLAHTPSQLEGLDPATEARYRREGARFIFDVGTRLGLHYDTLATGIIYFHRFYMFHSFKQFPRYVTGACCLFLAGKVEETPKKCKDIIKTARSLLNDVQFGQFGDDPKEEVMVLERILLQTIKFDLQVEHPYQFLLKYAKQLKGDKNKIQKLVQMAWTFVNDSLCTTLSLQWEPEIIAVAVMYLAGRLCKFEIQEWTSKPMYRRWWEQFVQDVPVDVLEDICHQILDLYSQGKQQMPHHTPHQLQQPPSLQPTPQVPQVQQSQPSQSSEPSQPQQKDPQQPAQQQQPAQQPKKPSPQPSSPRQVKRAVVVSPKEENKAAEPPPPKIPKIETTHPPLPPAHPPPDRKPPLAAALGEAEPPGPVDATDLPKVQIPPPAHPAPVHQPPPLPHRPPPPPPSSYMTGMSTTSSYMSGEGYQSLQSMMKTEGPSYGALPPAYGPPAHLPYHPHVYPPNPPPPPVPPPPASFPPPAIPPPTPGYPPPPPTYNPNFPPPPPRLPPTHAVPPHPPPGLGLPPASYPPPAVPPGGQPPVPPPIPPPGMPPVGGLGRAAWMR
Protocol: CAL-120 human breast cancer cells (DSMZ ACC 459) were seeded at 300,000 cells/well in 6-well plates containing 2 mL of growth medium (DMEM, 10% FCS, glutamine) and incubated for 24 h at 37° C. in an humidified incubator. Test compounds were added at various concentrations, control wells received solvent (DMSO), and the plates were incubated for another 18 h at 37° C. Cells were washed 2 times with PBS and lysed in 75 microL lysis buffer (MSD-Puffer (MSD, #R60TX-2), +1% 505S+PhosSTOP (Roche #04906837001)+complete mini (Roche #04693159001)) by scraping. The lysates were pushed 2 times through Qiashedders followed by centrifugation at 14,000 rpm for 30-50 sec. The supernatant was stored at −20° C. Proteins were separated by applying 0.4 microgramms of protein lysate to Protein Simple 66-440 kDa (Protein Simple #SM-S002) size assay columns on a PEGGY SUE or SALLY SUE equipment according to the supplier's manual. CDK12 and HSP90 (loading control) were detected using anti-human CDK12 antibody (Cell Signaling Technologies (CST) #11793) at 1:25 dilution and anti-human HSP90 antibody (CST #4877) at 1:5,000 dilution. CDK12 and HSP90 peak areas were determined using Protein Simple Compass software. Ratio of CDK12/HSP90 peak areas were calculated for each sample, and […] values (degrading concentration to achieve 50% reduction relative to vehicle treated control) were determined by means of a 4 parameter fit.

[3] = tested on: BRCA1 mRNA expression in MDA-MB-231 cells; experiment: qRT-PCR assay: BRCA1 mRNA expression in MDA-MB-231; assay type: cell-based, human; settings: Homo sapiens, MDA-MB-231, Inhibition of BRCA1 mRNA expression in MDA-MB-231 cells; median; read-out: RTqPCR-MDA-MB-231, IC50, BRCA1 (median)
Outline: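 First, cells are plated at 200,000 per well and allowed 24 h. Second, test substances are applied continuously for a further 24 h. Finally, RNA is isolated, 600 ng is converted to cDNA, and qPCR quantifies the transcript relative to GAPDH.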

[4] = tested on: BRCA1 mRNA expression in CAL-120 cells; experiment: qRT-PCR assay: BRCA1 mRNA expression in CAL-120; assay type: cell-based; settings: Homo sapiens; Inhibition of BRCA1 mRNA expression in CAL-120 cells; median; read-out: RTqPCR-CAL-120, IC50, BRCA1 (median)
Protocol: 3. qRT-PCR Assay: BRCA, ATR, MCL1 in MDA-MB-231, CAL-120
Tissue cultured human MDA-MB-231 human breast cancer cells were plated in 500 microL per well at 200,000 cells/well in a 24 well microtiter plate. After 24 h, the cells were exposed continuously for 24 h to test substances (substances were added with Tecan HP 0300 Dispenser). RNA was prepared using Qiagen RNeasy MiniKit (#74106), RNA was quantified using a NanoDrop Equipment, and 600 nano gamms of RNA was coverted to cDNA using a SuperScript VILO kit (Thermofisher #11755050) followed by qPCR amplification. BRCA1 and ATR gene expression was measured by RT-qPCR and normalised to GAPDH housekeeping gene expression. qPCR primer sets have been purchased from Thermo Fisher Scientific/Applied Biosystems: BRCA1, #Hs 01556193; ATR, #Hs 00992123; GAPDH, #Hs 03929097.

[5] = biological target: T2, CYCLIN K (nuclear staining in CAL-120 cells) (Homo sapiens, UniProt O75909); experiment: CYCLIN K nuclear protein level: immunofluorescence high content analysis (CAL-120); assay type: cell-based; settings: 24 h, 50% reduction of nuclear CCNK staining intensity, median, read-out: CYCLIN K degradation IF, DC50-[mol/l] (median)
T2 construct: endogenous in cells; host or cells: CAL-120 human breast cancer cells (DSMZ ACC 459)
T2 sequence (O75909 whole entry): as the sequence (O75909 whole entry partner) above
T2 sequence (Q9NYV4 whole entry partner): as the sequence (Q9NYV4 whole entry) above
Outline: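 Readout is automated confocal image analysis of nuclear cyclin K immunofluorescence (Hoechst nuclei) after PFA fixation. Cells were CAL-120, exposed to compound dose-response 24 h at 37 °C; values are DC50 for halving nuclear CCNK signal relative to DMSO and control wells.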

SMILES | IC50 [1] [nM] | DC50 [2] [nM] | IC50 [3] [nM] | IC50 [4] [nM] | DC50 [5] [nM]
Clc1cnn2c(NCc3nc4ccccc4[nH]3)nc(N3CCOCC3)nc12 [Example 15, N-[(1H-benzimidazol-2-yl)methyl]-8-chloro-2-(morpholin-4-yl)pyrazolo[1,5-a][1,3,5]triazin-4-amine] | 44.6 | 2.98 | 10 | 29.8 | 4.51
FC(F)(F)c1cnn2c(NCc3nc4ccccc4[nH]3)nc(N3CCOCC3)nc12 [Example 241, N-[(1H-benzimidazol-2-yl)methyl]-2-(morpholin-4-yl)-8-(trifluoromethyl) pyrazolo[1,5-a][1,3,5]triazin-4-amine] | 28.9 | 7.29 | 17.3 | – | 1.26
CC(C)c1cnn2c(NCc3nc4ccccc4[nH]3)nc(Nc3ccncc3)nc12 [Example 14, N^4-[(1H-benzimidazol-2-yl)methyl]-8-(propan-2-yl)-N^2-(pyridin-4-yl)pyrazolo[1,5-a][1,3,5]triazine-2,4-diamine] | 47 | 9.38 | < 30 | – | –
C[C@H]1CN(c2nc(NCc3nc4ccccc4[nH]3)n3ncc(Br)c3n2)CCN1 [Example 169, N-[(1H-benzimidazol-2-yl)methyl]-8-bromo-2-[(3S)-3-methylpiperazin-1-yl]pyrazolo[1,5-a][1,3,5]triazin-4-amine] | 20.7 | 1.04 | 3.32 | – | 1.95
OC1CCCN(c2nc(NCc3nc4ccccc4[nH]3)n3ncc(Br)c3n2)C1 (racemic) [Example 16, (rac)-1-(4-{[(1H-benzimidazol-2-yl)methyl]amino}-8-bromopyrazolo[1,5-a][1,3,5]triazin-2-yl)piperidin-3-ol] | 81.1 | 58.1 | 5.41 | – | –
Fc1ccc2[nH]c(CNc3nc(N4C[C@@H]5C[C@H]4CO5)nc4c(C5CC5)cnn34)nc2c1 [Example 185, 8-cyclopropyl-N-[(5-fluoro-1H-benzimidazol-2-yl)methyl]-2-[(1S,4S)-2-oxa-5-azabicyclo[2.2.1]heptan-5-yl]pyrazolo[1,5-a][1,3,5]triazin-4-amine] | 58.8 | – | 26.6 | – | 2
COc1cccc2[nH]c(CNc3nc(N4CCOCC4)nc4c(C5CC5)cnn34)nc12 [Example 213, 8-cyclopropyl-N-[(4-methoxy-1H-benzimidazol-2-yl)methyl]-2-morpholino-pyrazolo[1,5-a][1,3,5]triazin-4-amine] | 24.8 | – | 15 | – | 1.55
CN1CC[C@H]2CN(c3nc(NCc4nc5ccccc5[nH]4)n4ncc(Br)c4n3)C[C@H]21 [Example 179, N-[(1H-benzimidazol-2-yl)methyl]-8-bromo-2-[(3aS,6aS)-1-methylhexahydropyrrolo[3,4-b]pyrrol-5 (1H)-yl]pyrazolo[1,5-a][1,3,5]triazin-4-amine] | 74.8 | – | 21.7 | – | 1.37
Fc1cccc2[nH]c(CNc3nc(N4CCOCC4)nc4c(C5CC5)cnn34)nc12 [Example 188, 8-cyclopropyl-N-[(4-fluoro-1H-benzimidazol-2-yl)methyl]-2-(morpholin-4-yl)pyrazolo[1,5-a][1,3,5]triazin-4-amine] | 16.1 | – | 3.06 | – | 0.815
Fc1ccc2[nH]c(CNc3nc(N4C[C@@H]5C[C@H]4CO5)nc4c(C5CC5)cnn34)nc2c1F [Example 173, 8-cyclopropyl-N-[(4,5-difluoro-1H-benzimidazol-2-yl)methyl]-2-[(1S,4S)-2-oxa-5-azabicyclo[2.2.1]heptan-5-yl]pyrazolo[1,5-a][1,3,5]triazin-4-amine] | 20.8 | – | 4.58 | – | 1.03

Compounds with a lower IC50 [1], results first:

IC50 [1] [nM] | DC50 [2] [nM] | IC50 [3] [nM] | IC50 [4] [nM] | DC50 [5] [nM] | SMILES
4.01 | 0.307 | 3.27 | – | 0.268 | Fc1ccc2[nH]c(CNc3nc(N4CCNCC4)nc4c(C5CC5)cnn34)nc2c1 [Example 190, 8-cyclopropyl-N-[(5-fluoro-1H-benzimidazol-2-yl)methyl]-2-(piperazin-1-yl)pyrazolo[1,5-a][1,3,5]triazin-4-amine]
1.69 | – | 1.19 | – | 0.119 | Cc1ccc2[nH]c(CNc3nc(N4C[C@@H]5CCCN[C@@H]5C4)nc4c(Br)cnn34)nc2c1 [Example 203, 8-bromo-N-[(5-methyl-1H-benzimidazol-2-yl)methyl]-2-[(4aS, 7aS)-octahydro-6H-pyrrolo[3,4-b]pyridin-6-yl]pyrazolo[1,5-a][1,3,5]triazin-4-amine]
4.91 | – | 2.05 | – | 0.589 | Cc1ccc2[nH]c(CNc3nc(N4C[C@H]5C[C@@H]4CO5)nc4c(Br)cnn34)nc2c1 [Example 192, 8-bromo-N-[(5-methyl-1H-benzimidazol-2-yl)methyl]-2-[(1R,4R)-2-oxa-5-azabicyclo[2.2.1]heptan-5-yl]pyrazolo[1,5-a][1,3,5]triazin-4-amine]
10.3 | – | 3.89 | – | 0.929 | OC[C@@H]1CCCCN1c1nc(NCc2nc3c(F)c(F)ccc3[nH]2)n2ncc(C3CC3)c2n1 [Example 184, [(2S)-1-(8-cyclopropyl-4-{[(4,5-difluoro-1H-benzimidazol-2-yl)methyl]amino}pyrazolo[1,5-a][1,3,5]triazin-2-yl)piperidin-2-yl]methanol]
15.6 | – | 6.27 | – | 0.763 | COc1cccc2[nH]c(CNc3nc(N4CCN(C)CC4)nc4c(C5CC5)cnn34)nc12 [Example 197, 8-cyclopropyl-N-[(4-methoxy-1H-benzimidazol-2-yl)methyl]-2-(4-methylpiperazin-1-yl)pyrazolo[1,5-a][1,3,5]triazin-4-amine]
2.26 | – | 1.67 | – | 0.0619 | Cc1ccc2[nH]c(CNc3nc(N4C[C@@H](C)N[C@@H](C)C4)nc4c(Br)cnn34)nc2c1 [Example 209, 8-bromo-2-[(3R,5S)-3,5-dimethylpiperazin-1-yl]-N-[(5-methyl-1H-benzimidazol-2-yl)methyl]pyrazolo[1,5-a][1,3,5]triazin-4-amine]
